Assay results published in the supplement of paper PMC11061612.

Legend:
Assay in all cases: Bliss excess, mean over the matrix (fraction); higher = more synergy
[1] = system: MSTO-211H (Mesothelioma)
Outline: (§1)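 Cell lines in DMEM/F12 or RPMI with 10% FBS were plated in 1536-well plates, held 24 hours at 37°C, 5% CO2, then given two-drug dose matrices for 72 hours (DMSO typically 0.2%). Viability was read by CellTiter-Glo 2.0 luminescence and scaled as inhibition from 0 (vehicle wells) to 1 (blank wells). Combination Emax is the second-highest inhibition in the matrix; Bliss excess is observed combination effect minus expected EA + EB − EA·EB, EA and EB being single-agent effects.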

[2] = system: MEG-01 (Chronic Myelogenous Leukemia)
Outline: as §1

[3] = system: SNG-M (Endometrial Carcinoma)
Outline: as §1

[4] = system: HCC-827 (Lung Adenocarcinoma)
Outline: as §1

[5] = system: BICR78 (Oral Cavity Carcinoma)
Outline: as §1

[6] = system: SK-UT-1 (Other Solid Carcinomas)
Outline: as §1

[7] = system: JHH-6 (Hepatocellular Carcinoma)
Outline: as §1

[8] = system: TYK-nu (Ovarian Carcinoma)
Outline: as §1

[9] = system: HOP-92 (Non-Small Cell Lung Carcinoma)
Outline: as §1

[10] = system: 647-V (Bladder Carcinoma)
Outline: as §1

[11] = system: CS1 (Chondrosarcoma)
Outline: as §1

[12] = system: A172 (Glioblastoma)
Outline: as §1

[13] = system: SNU-61 (Colorectal Carcinoma)
Outline: as §1

[14] = system: EKVX (Non-Small Cell Lung Carcinoma)
Outline: as §1

[15] = system: SLVL (B-Cell Non-Hodgkin's Lymphoma)
Outline: as §1

[16] = system: P31-FUJ (Acute Myeloid Leukemia)
Outline: as §1

[17] = system: HCT-116 (Colorectal Carcinoma)
Outline: as §1

[18] = system: EFM-192A (Breast Carcinoma)
Outline: as §1

[19] = system: WSU-DLCL2 (B-Cell Non-Hodgkin's Lymphoma)
Outline: as §1

[20] = system: H4 (Low Grade Glioma)
Outline: as §1

| SMILES | Bliss excess [1] | Bliss excess [2] | Bliss excess [3] | Bliss excess [4] | Bliss excess [5] | Bliss excess [6] | Bliss excess [7] | Bliss excess [8] | Bliss excess [9] | Bliss excess [10] | Bliss excess [11] | Bliss excess [12] | Bliss excess [13] | Bliss excess [14] | Bliss excess [15] | Bliss excess [16] | Bliss excess [17] | Bliss excess [18] | Bliss excess [19] | Bliss excess [20] |
| --- | --- | --- | --- | --- | --- | --- | --- | --- | --- | --- | --- | --- | --- | --- | --- | --- | --- | --- | --- | --- |
| Cc1cc2ncnn2cc1Nc1ncc2c(n1)n(C1CCOCC1)c(=O)n2C [AZD7648] + C[C@@H]1COCCN1C2=NC(=NC(=C2)C3(CC3)[S@](=N)(=O)C)C4=C5C=CNC5=NC=C4 [AZD6738] (first compound max 10 µM, 7x7, partner max 10 µM) | 0.0403 | -0.0473 | -0.0217 | 0.0048 | -0.0018 | 0.0471 | 0.036 | -0.034 | 0.0104 | 0.0987 | 0.0024 | -0.0552 | 0.0199 | 0.0353 | -0.0178 | 0.0131 | -0.0102 | 0.0421 | -0.001 | -0.0116 |
| Cc1cc2ncnn2cc1Nc1ncc2c(n1)n(C1CCOCC1)c(=O)n2C [AZD7648] + O=C(c1cc(Cc2n[nH]c(=O)c3ccccc23)ccc1F)N1CCN(C(=O)C2CC2)CC1 [Olaparib] (first compound max 10 µM, 7x7, partner max 10 µM) | -0.0143 | -0.0086 | -0.0471 | -0.028 | -0.0056 | -0.0331 | -0.0516 | -0.0819 | -0.0144 | -0.0098 | -0.0193 | -0.007 | -0.0443 | -0.0563 | -0.0027 | -0.0511 | -0.0502 | -0.0533 | -0.0096 | 0.0404 |
| COc1cccc2c1C(=O)c1c(O)c3c(c(O)c1C2=O)C[C@@](O)(C(=O)CO)C[C@@H]3O[C@H]1C[C@H](N)[C@H](O)[C@H](C)O1 [Doxorubicin] + Cc1cc2ncnn2cc1Nc1ncc2c(n1)n(C1CCOCC1)c(=O)n2C [AZD7648] (first compound max 1 µM, 7x7, partner max 10 µM) | 0.115 | 0.0698 | 0.0194 | 0.0178 | 0.028 | 0.093 | 0.0476 | 0.0591 | 0.0271 | 0.107 | 0.0851 | 0.0789 | -0.0124 | 0.0083 | 0.0656 | 0.108 | 0.0556 | -0.0216 | 0.101 | 0.0066 |
| COc1cccc(OCCCN)c1-c1cc(Nc2cnc(C#N)cn2)n[nH]1 [Prexasertib] + C=CCn1c(=O)c2cnc(Nc3ccc(N4CCN(C)CC4)cc3)nc2n1-c1cccc(C(C)(C)O)n1 [AZD1775] (first compound max 1 µM, partner max 1 µM) | 0.0083 | 0.0016 | 0.0698 | -0.029 | 0.0619 | 0.071 | 0.0849 | 0.0459 | -0.0601 | 0.233 | 0.0426 | 0.142 | -0.0124 | -0.024 | 0.0481 | 0.0104 | 0.083 | 0.0662 | 0.138 | 0.0726 |
| COc1cccc(OCCCN)c1-c1cc(Nc2cnc(C#N)cn2)n[nH]1 [Prexasertib] + CCc1c2c(nc3ccc(O)cc13)-c1cc3c(c(=O)n1C2)COC(=O)[C@]3(O)CC [SN-38] (first compound max 1 µM, 7x7, partner max 0.3 µM) | -0.0857 | -0.0073 | -0.0534 | 0 | -0.0236 | -0.0125 | 0.0337 | -0.0899 | 0.0418 | 0.0129 | -0.0742 | -0.0322 | 0.0163 | -0.0347 | -0.0258 | -0.0507 | -0.0124 | 0.0304 | -0.006 | -0.0544 |
| COc1cccc(OCCCN)c1-c1cc(Nc2cnc(C#N)cn2)n[nH]1 [Prexasertib] + CN(C)CCCOc1ccc(-c2ccc3ncc4c(c3c2)n(C2CCOCC2)c(=O)n4C)cn1 [AZD0156] (first compound max 1 µM, 7x7, partner max 1 µM) | -0.0164 | -0.0411 | 0.0305 | -0.0026 | -0.0292 | -0.0039 | 0.0349 | -0.0627 | 0.0056 | -0.0525 | -0.0324 | 0.0542 | -0.0459 | -0.0039 | 0.0036 | 0.009 | -0.0194 | 0.0078 | 0.0086 | -0.0309 |
